According to patent US4399126A, “Modulators of the complement system” (American Cyanamid Company, priority 1982, dated 1983):
Like-named read-outs stand apart in the source and are kept apart here. Blank lines part the entries; values can stand above or below the compound they belong to.

Legend:
activated human C1 = biological target: T1, activated human C1 (Homo sapiens, UniProt P09871); assay: Test Code 026 (C1 inhibitor); format: biochemical; settings: serial twofold dilution assay; higher well number indicates higher activity
T1 sequence (P09871 16-437 limits assumed): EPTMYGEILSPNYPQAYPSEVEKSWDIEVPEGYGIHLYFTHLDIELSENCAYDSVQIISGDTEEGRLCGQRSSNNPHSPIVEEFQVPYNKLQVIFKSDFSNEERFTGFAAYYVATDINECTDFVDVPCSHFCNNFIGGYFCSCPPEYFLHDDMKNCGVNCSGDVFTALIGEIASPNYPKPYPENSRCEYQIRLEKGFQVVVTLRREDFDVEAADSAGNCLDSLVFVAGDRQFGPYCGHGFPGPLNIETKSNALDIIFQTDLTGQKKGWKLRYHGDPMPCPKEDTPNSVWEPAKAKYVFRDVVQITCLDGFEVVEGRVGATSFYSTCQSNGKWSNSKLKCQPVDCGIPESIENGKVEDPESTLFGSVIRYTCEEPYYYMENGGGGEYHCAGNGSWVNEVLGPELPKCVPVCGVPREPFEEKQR
T1 sequence (P09871 438-688 limits assumed): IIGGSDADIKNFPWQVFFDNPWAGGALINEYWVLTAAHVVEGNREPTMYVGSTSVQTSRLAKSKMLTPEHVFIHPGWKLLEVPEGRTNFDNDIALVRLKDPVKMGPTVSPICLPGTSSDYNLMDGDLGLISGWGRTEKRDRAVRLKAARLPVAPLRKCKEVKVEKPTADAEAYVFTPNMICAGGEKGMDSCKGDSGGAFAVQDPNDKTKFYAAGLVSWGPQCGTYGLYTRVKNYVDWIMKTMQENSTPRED

[1] = tested on: late components of human complement (C3-C9); assay: Test Code 035 (C3-C9 inhibitor), lysis of EAC 142; format: biochemical; settings: serial twofold dilution assay; higher well number indicates higher activity
[2] = tested on: complement activity of sera; assay: Guinea Pig Intraperitoneal Test (GPIP); format: in vivo; settings: Cavia porcellus, ip, 200 mg/kg i.p., capillary complement assay
Experimental: Percent inhibition is calculated by comparison with simultaneous controls.

[3] = blood 2 hours after injection, read-out: in vivo Activity Guinea Pig % Inhibition Intraperitoneal, 2 hours
[4] = blood 6 hours after injection, read-out: in vivo Activity Guinea Pig % Inhibition Intraperitoneal, 6 hours
[5] = blood 24 hours after injection, read-out: in vivo Activity Guinea Pig % Inhibition Intraperitoneal, 24 hours

in vitro Activity Cl 026 Wells (activated human C1): 10.2 Wells
SMILES: O=C(CCC(=O)Nc1ccc(S[C@@H]2O[C@H](COS(=O)(=O)O)[C@@H](O[C@H]3O[C@H](COS(=O)(=O)O)[C@@H](OS(=O)(=O)O)[C@H](OS(=O)(=O)O)[C@H]3OS(=O)(=O)O)[C@H](OS(=O)(=O)O)[C@H]2OS(=O)(=O)O)cc1)Nc1ccc(S[C@@H]2O[C@H](COS(=O)(=O)O)[C@@H](O[C@H]3O[C@H](COS(=O)(=O)O)[C@@H](OS(=O)(=O)O)[C@H](OS(=O)(=O)O)[C@H]3OS(=O)(=O)O)[C@H](OS(=O)(=O)O)[C@H]2OS(=O)(=O)O)cc1 [Tetradecasodium N,N'--bis[4-[2,3,6-tri-O--sulfo-4-O--(2,3,4,6-tetra-O--sulfo-α-D-glucopyranosyl)-β -D-glucopyranosylthio]phenyl]butanediamide]
in vitro Activity C-Late 035 Wells [1]: 1.4 Wells

SMILES: O=C(CCCCCCC(=O)Nc1ccc(S[C@@H]2O[C@H](COS(=O)(=O)O)[C@@H](O[C@H]3O[C@H](COS(=O)(=O)O)[C@@H](OS(=O)(=O)O)[C@H](OS(=O)(=O)O)[C@H]3OS(=O)(=O)O)[C@H](OS(=O)(=O)O)[C@H]2OS(=O)(=O)O)cc1)Nc1ccc(S[C@@H]2O[C@H](COS(=O)(=O)O)[C@@H](O[C@H]3O[C@H](COS(=O)(=O)O)[C@@H](OS(=O)(=O)O)[C@H](OS(=O)(=O)O)[C@H]3OS(=O)(=O)O)[C@H](OS(=O)(=O)O)[C@H]2OS(=O)(=O)O)cc1.[Na].[Na].[Na].[Na].[Na].[Na].[Na].[Na].[Na].[Na].[Na].[Na].[Na].[Na] [Tetradecasodium N,N'-bis[4-[2,3,6-tri-O-sulfo-4-O-(2,3,4,6-tetra-O-sulfo-α-D-glucopyranosyl)-β-D-glucopyranosylthio]phenyl]octanediamide]
in vitro Activity Cl 026 Wells (activated human C1): 9 Wells
in vitro Activity C-Late 035 Wells [1]: 1.5 Wells
inhibition at 200 mg/kg [2, 3]: 87%
inhibition at 200 mg/kg [2, 4]: 71%
inhibition at 200 mg/kg [2, 5]: 44%

SMILES: O=C(CCCCCCCCC(=O)Nc1ccc(S[C@@H]2O[C@H](COS(=O)(=O)O)[C@@H](O[C@H]3O[C@H](COS(=O)(=O)O)[C@@H](OS(=O)(=O)O)[C@H](OS(=O)(=O)O)[C@H]3OS(=O)(=O)O)[C@H](OS(=O)(=O)O)[C@H]2OS(=O)(=O)O)cc1)Nc1ccc(S[C@@H]2O[C@H](COS(=O)(=O)O)[C@@H](O[C@H]3O[C@H](COS(=O)(=O)O)[C@@H](OS(=O)(=O)O)[C@H](OS(=O)(=O)O)[C@H]3OS(=O)(=O)O)[C@H](OS(=O)(=O)O)[C@H]2OS(=O)(=O)O)cc1.[Na].[Na].[Na].[Na].[Na].[Na].[Na].[Na].[Na].[Na].[Na].[Na].[Na].[Na] [tetradecasodium N,N'-bis[4-[2,3,6-tri-O-sulfo-4-O-(2,3,4,6-tetra-O-sulfo-α-D-glucopyranosyl)-β-D-glucopyranosylthio]phenyl]decanediamide]
in vitro Activity Cl 026 Wells (activated human C1): 5.0 Wells
in vitro Activity C-Late 035 Wells [1]: 0.8 Wells
inhibition at 200 mg/kg [2, 3]: 88%
inhibition at 200 mg/kg [2, 4]: 87%
inhibition at 200 mg/kg [2, 5]: 75%

SMILES: O=C(Nc1ccc(S[C@@H]2O[C@H](COS(=O)(=O)O)[C@@H](O[C@H]3O[C@H](COS(=O)(=O)O)[C@@H](OS(=O)(=O)O)[C@H](OS(=O)(=O)O)[C@H]3OS(=O)(=O)O)[C@H](OS(=O)(=O)O)[C@H]2OS(=O)(=O)O)cc1)C(=O)Nc1ccc(S[C@@H]2O[C@H](COS(=O)(=O)O)[C@@H](O[C@H]3O[C@H](COS(=O)(=O)O)[C@@H](OS(=O)(=O)O)[C@H](OS(=O)(=O)O)[C@H]3OS(=O)(=O)O)[C@H](OS(=O)(=O)O)[C@H]2OS(=O)(=O)O)cc1.[Na].[Na].[Na].[Na].[Na].[Na].[Na].[Na].[Na].[Na].[Na].[Na].[Na].[Na] [tetradecasodium N,N'-bis[4-[2,3,6-tri-O-sulfo-4-O-(2,3,4,6-tetra-O-sulfo-α-D-glucopyranosyl)-β-D-glucopyranosylthio]phenyl]ethanediamide]
in vitro Activity Cl 026 Wells (activated human C1): 9.5 Wells
in vitro Activity C-Late 035 Wells [1]: 1.2 Wells
inhibition at 200 mg/kg [2, 3]: 90%
inhibition at 200 mg/kg [2, 4]: 90%
inhibition at 200 mg/kg [2, 5]: 80%

SMILES: O=C(CCCCCC(=O)Nc1ccc(S[C@@H]2O[C@H](COS(=O)(=O)O)[C@@H](O[C@H]3O[C@H](COS(=O)(=O)O)[C@@H](OS(=O)(=O)O)[C@H](OS(=O)(=O)O)[C@H]3OS(=O)(=O)O)[C@H](OS(=O)(=O)O)[C@H]2OS(=O)(=O)O)cc1)Nc1ccc(S[C@@H]2O[C@H](COS(=O)(=O)O)[C@@H](O[C@H]3O[C@H](COS(=O)(=O)O)[C@@H](OS(=O)(=O)O)[C@H](OS(=O)(=O)O)[C@H]3OS(=O)(=O)O)[C@H](OS(=O)(=O)O)[C@H]2OS(=O)(=O)O)cc1.[Na].[Na].[Na].[Na].[Na].[Na].[Na].[Na].[Na].[Na].[Na].[Na].[Na].[Na] [tetradecasodium N,N'-bis[4-[2,3,6-tri-O-sulfo-4-O-(2,3,4,6-tetra-O-sulfo-α-D-glucopyranosyl)-β-D-glucopyranosylthio]phenyl]heptanediamide]
in vitro Activity Cl 026 Wells (activated human C1): 10.7 Wells
in vitro Activity C-Late 035 Wells [1]: 1.0 Wells
inhibition at 200 mg/kg [2, 3]: 87%
inhibition at 200 mg/kg [2, 4]: 87%
inhibition at 200 mg/kg [2, 5]: 50%

SMILES: O=C(CCCCC(=O)Nc1ccc(S[C@@H]2O[C@H](COS(=O)(=O)O)[C@@H](O[C@H]3O[C@H](COS(=O)(=O)O)[C@@H](OS(=O)(=O)O)[C@H](OS(=O)(=O)O)[C@H]3OS(=O)(=O)O)[C@H](OS(=O)(=O)O)[C@H]2OS(=O)(=O)O)cc1)Nc1ccc(S[C@@H]2O[C@H](COS(=O)(=O)O)[C@@H](O[C@H]3O[C@H](COS(=O)(=O)O)[C@@H](OS(=O)(=O)O)[C@H](OS(=O)(=O)O)[C@H]3OS(=O)(=O)O)[C@H](OS(=O)(=O)O)[C@H]2OS(=O)(=O)O)cc1.[Na].[Na].[Na].[Na].[Na].[Na].[Na].[Na].[Na].[Na].[Na].[Na].[Na].[Na] [tetradecasodium N,N'-bis[4-[2,3,6-tri-O-sulfo-4-O-(2,3,4,6-tetra-O-sulfo-α-D-glucopyranosyl)-β-D-glucopyranosylthio]phenyl]hexanediamide]
in vitro Activity Cl 026 Wells (activated human C1): 10.5 Wells
in vitro Activity C-Late 035 Wells [1]: 1.0 Wells
inhibition at 200 mg/kg [2, 3]: 90%
inhibition at 200 mg/kg [2, 4]: 85%
inhibition at 200 mg/kg [2, 5]: 76%

SMILES: O=C(CCCC(=O)Nc1ccc(S[C@@H]2O[C@H](COS(=O)(=O)O)[C@@H](O[C@H]3O[C@H](COS(=O)(=O)O)[C@@H](OS(=O)(=O)O)[C@H](OS(=O)(=O)O)[C@H]3OS(=O)(=O)O)[C@H](OS(=O)(=O)O)[C@H]2OS(=O)(=O)O)cc1)Nc1ccc(S[C@@H]2O[C@H](COS(=O)(=O)O)[C@@H](O[C@H]3O[C@H](COS(=O)(=O)O)[C@@H](OS(=O)(=O)O)[C@H](OS(=O)(=O)O)[C@H]3OS(=O)(=O)O)[C@H](OS(=O)(=O)O)[C@H]2OS(=O)(=O)O)cc1.[Na].[Na].[Na].[Na].[Na].[Na].[Na].[Na].[Na].[Na].[Na].[Na].[Na].[Na] [tetradecasodium N,N'-bis[4-[2,3,6-tri-O-sulfo-4-O-(2,3,4,6-tetra-O-sulfo-α-D-glucopyranosyl)-β-D-glucopyranosylthio]phenyl]pentanediamide]
in vitro Activity Cl 026 Wells (activated human C1): 9.9 Wells
in vitro Activity C-Late 035 Wells [1]: 1.5 Wells
inhibition at 200 mg/kg [2, 3]: 90%
inhibition at 200 mg/kg [2, 4]: 88%
inhibition at 200 mg/kg [2, 5]: 44%

SMILES: O=C(CCCCCCCCCCCCC(=O)Nc1ccc(S[C@@H]2O[C@H](COS(=O)(=O)O)[C@@H](O[C@H]3O[C@H](COS(=O)(=O)O)[C@@H](OS(=O)(=O)O)[C@H](OS(=O)(=O)O)[C@H]3OS(=O)(=O)O)[C@H](OS(=O)(=O)O)[C@H]2OS(=O)(=O)O)cc1)Nc1ccc(S[C@@H]2O[C@H](COS(=O)(=O)O)[C@@H](O[C@H]3O[C@H](COS(=O)(=O)O)[C@@H](OS(=O)(=O)O)[C@H](OS(=O)(=O)O)[C@H]3OS(=O)(=O)O)[C@H](OS(=O)(=O)O)[C@H]2OS(=O)(=O)O)cc1.[Na].[Na].[Na].[Na].[Na].[Na].[Na].[Na].[Na].[Na].[Na].[Na].[Na].[Na] [tetradecasodium N,N'-bis[4-[2,3,6-tri-O-sulfo-4-O-(2,3,4,6-tetra-O-sulfo-α-D-glucopyranosyl)-β-D-glucopyranosylthio]phenyl]tetradecanediamide]
in vitro Activity Cl 026 Wells (activated human C1): 7 Wells
in vitro Activity C-Late 035 Wells [1]: 3.0 Wells

SMILES: O=C(CCCC(=O)Nc1ccc(S[C@@H]2O[C@H](COS(=O)(=O)O)[C@@H](O[C@@H]3O[C@H](COS(=O)(=O)O)[C@@H](OS(=O)(=O)O)[C@H](OS(=O)(=O)O)[C@H]3OS(=O)(=O)O)[C@H](OS(=O)(=O)O)[C@H]2OS(=O)(=O)O)cc1)Nc1ccc(S[C@@H]2O[C@H](COS(=O)(=O)O)[C@@H](O[C@@H]3O[C@H](COS(=O)(=O)O)[C@@H](OS(=O)(=O)O)[C@H](OS(=O)(=O)O)[C@H]3OS(=O)(=O)O)[C@H](OS(=O)(=O)O)[C@H]2OS(=O)(=O)O)cc1.[Na].[Na].[Na].[Na].[Na].[Na].[Na].[Na].[Na].[Na].[Na].[Na].[Na].[Na] [tetradecasodium N,N'-bis[4-[2,3,6-tri-O-sulfo-4-O-(2,3,4,6-tetra-O-sulfo-β-D-glucopyranosyl)-β-D-glucopyranosylthio]phenyl]pentanediamide]
in vitro Activity Cl 026 Wells (activated human C1): 12 Wells
in vitro Activity C-Late 035 Wells [1]: 2.0 Wells
